# Counter-ions that a name gives are not always drawn.
# Test system: human basophils
# Experiment: Inhibition of histamine release from immunologically stimulated human basophils
# Type: cell-based
# Details: Homo sapiens, concentration causing 50% inhibition of histamine release, by linear regression; active if IC50 ≦ 48 µM; read-out: IC50
# Procedure, shortened: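 Leukocytes from sedimented human blood, washed in Tris-A and resuspended in Tris-ACM, were challenged with anti-IgE or antigen, with or without compound, for 60 min at 37 °C. Released histamine was measured fluorometrically after OPT derivatization and expressed as percent of total (perchloric acid lysate), corrected for spontaneous release.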
row,IC50 [µM],SMILES
1,11.1,Cc1cccc(Nc2nccc(-c3ccc[nH]3)n2)c1 [N-(3-Methylphenyl)-4-(1H-pyrrol-2-yl)-2-pyrimidinamine]
2,0.7,Cc1cccc(Nc2nccc(-c3ccccn3)n2)c1 [N-(3-Methylphenyl)-4-(2-pyridinyl)-2-pyrimidinamine]
3,1.5,Cc1cccc(Nc2nccc(-c3cccnc3)n2)c1 [N-(3-Methylphenyl)-4-(3-pyridinyl)-2-pyrimidinamine]
4,3.8,Cc1cccc(Nc2nccc(-c3ccsc3)n2)c1 [N-(3-Methylphenyl)-4-(3-thienyl)-2-pyrimidinamine]
5,9.4,Cc1cccc(Nc2nccc(-c3ccncc3)n2)c1 [N-(3-Methylphenyl)-4-(4-pyridinyl)-2-pyrimidinamine]
6,10.9,Cc1cccc(Nc2nccc(-c3ccnc4ccccc34)n2)c1 [N-(3-Methylphenyl)-4-(4-quinolinyl)-2-pyrimidinamine]
7,1.4,Cc1cccc(Nc2nccc(-c3ccc(C)s3)n2)c1 [N-(3-Methylphenyl)-4-(5-methyl-2-thienyl)-2-pyrimidinamine]
8,5.4,Cc1cccc(Nc2nccc(-c3cnccn3)n2)c1 [N-(3-Methylphenyl)-4-pyrazinyl-2-pyrimidinamine]
9,0.8,CC(=O)c1ccc(Nc2nccc(-c3cccnc3)n2)cc1 [N-(4-Acetylphenyl)-4-(3-pyridinyl)-2-pyrimidinamine]

# More lines, now with the values behind:
row,SMILES,IC50 [µM]
1,CCc1cccc(Nc2nccc(-c3cccnc3)n2)c1 [N-(3-Ethylphenyl)-4-(3-pyridinyl)-2-pyrimidinamine],1.7
2,CCc1cccc(Nc2nccc(-c3ccsc3)n2)c1 [N-(3-Ethylphenyl)-4-(3-thienyl)-2-pyrimidinamine],1.1
3,CCc1cccc(Nc2nccc(-c3ccncc3)n2)c1 [N-(3-Ethylphenyl)-4-(4-pyridinyl)-2-pyrimidinamine],10.6
4,Fc1cccc(Nc2nccc(-c3ccccn3)n2)c1 [N-(3-Fluorophenyl)-4-(2-pyridinyl)-2-pyrimidinamine],0.9
5,Fc1cccc(Nc2nccc(-c3cccnc3)n2)c1 [N-(3-Fluorophenyl)-4-(3-pyridinyl)-2-pyrimidinamine],3.3
6,Fc1cccc(Nc2nccc(-c3ccncc3)n2)c1 [N-(3-Fluorophenyl)-4-(4-pyridinyl)-2-pyrimidinamine],0.7
7,"COc1cccc(Nc2nccc(-c3cc(C)oc3C)n2)c1 [N-(3-Methoxyphenyl)-4-(2,5-dimethyl-3-furanyl)-2-pyrimidinamine]",5.8
8,COc1cccc(Nc2nccc(-c3ccccn3)n2)c1 [N-(3-Methoxyphenyl)-4-(2-pyridinyl)-2-pyrimidinamine],0.2
9,COc1cccc(Nc2nccc(-c3cccs3)n2)c1 [N-(3-Methoxyphenyl)-4-(2-thienyl)-2-pyrimidinamine],0.9
10,COc1cccc(Nc2nccc(-c3cccnc3)n2)c1 [N-(3-Methoxyphenyl)-4-(3-pyridinyl)-2-pyrimidinamine],0.3
11,COc1cccc(Nc2nccc(-c3ccsc3)n2)c1 [N-(3-Methoxyphenyl)-4-(3-thienyl)-2-pyrimidinamine],1.7
12,COc1cccc(Nc2nccc(-c3ccncc3)n2)c1 [N-(3-Methoxyphenyl)-4-(4-pyridinyl)-2-pyrimidinamine],0.4
13,COc1cccc(Nc2nccc(-c3ccc(C)o3)n2)c1 [N-(3-Methoxyphenyl)-4-(5-methyl-2-furanyl)-2-pyrimidinamine],1.2
14,COc1cccc(Nc2nccc(-c3ccc(C)s3)n2)c1 [N-(3-Methoxyphenyl)-4-(5-methyl-2-thienyl)-2-pyrimidinamine],2.3
15,Cc1cccc(Nc2nccc(-c3cccn3C)n2)c1 [N-(3-Methylphenyl)-4-(1-methyl-1H-pyrrol-2-yl)-2-pyrimidinamine],9.4
16,Cc1cccc(Nc2nccc(-c3cccs3)n2)c1 [N-(3-Methylphenyl)-4-(2-thienyl)-2-pyrimidinamine],0.3

# Same assay, conditions: concentration causing 50% inhibition of histamine release, by linear regression; active if IC50 ≦ 48 µM; sulfate
row,SMILES,IC50 [µM]
1,"Cc1cccc(Nc2nccc(-c3cccs3)n2)c1 [N-(3-Methylphenyl)-4-(2-thienyl)-2-pyrimidinamine, sulfate]",3

# From patent EP0233461B2, “4,5,6-Substituted-2-pyrimidinamines” (AMERICAN CYANAMID COMPANY, priority 1986, dated 1987)
